Several values for one entry are separate records, joined by “and”; a condition that tells them apart may be missing. Equal entries are not always repeated. Inconclusive results and toxic doses are left out. Cut-off read from the data, not from the text of the source: active = T/C of 150% or more; inactive = T/C below 125%.
Tested on: L1210 leukemia ip in BDF1 mice, survival T/C
Assay: NCI In Vivo Anticancer Drug Screen. Data for tumor model L1210 Leukemia (intraperitoneal) in B6D2F1 (BDF1) mice
Conditions: endpoint: mean survival time, higher = longer survival
In short: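 Value reflects the ratio of survival in compound-treated mice to survival in vehicle-treated controls, with both groups carrying the same transplanted tumor.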

[1] = dose: 100.0 mg/kg/injection, schedule: Q01DX009 (ip), vehicle: saline
[2] = dose: 100.0 mg/kg/injection, schedule: Q04DX002 (ip), vehicle: saline with Tween-80
[3] = dose: 200.0 mg/kg/injection, schedule: Q04DX002 (ip), vehicle: saline with Tween-80
[4] = dose: 100.0 mg/kg/injection, schedule: Q04DX002 (ip), vehicle: Klucel (hydroxypropylcellulose) (HPC)
[5] = dose: 200.0 mg/kg/injection, schedule: Q04DX002 (ip), vehicle: Klucel (hydroxypropylcellulose) (HPC)
[6] = dose: 100.0 mg/kg/injection, schedule: Q01DX009 (ip), vehicle: Klucel (hydroxypropylcellulose) (HPC)
[7] = dose: 100.0 mg/kg/injection, schedule: Q04DX003 (ip), vehicle: Klucel (hydroxypropylcellulose) (HPC)
[8] = dose: 200.0 mg/kg/injection, schedule: Q01DX009 (ip), vehicle: Klucel (hydroxypropylcellulose) (HPC)
[9] = dose: 200.0 mg/kg/injection, schedule: Q04DX003 (ip), vehicle: Klucel (hydroxypropylcellulose) (HPC)
[10] = dose: 400.0 mg/kg/injection, schedule: Q01DX009 (ip), vehicle: Klucel (hydroxypropylcellulose) (HPC)
[11] = dose: 400.0 mg/kg/injection, schedule: Q04DX003 (ip), vehicle: Klucel (hydroxypropylcellulose) (HPC)
[12] = dose: 400.0 mg/kg/injection, schedule: Q04DX002 (ip), vehicle: Klucel (hydroxypropylcellulose) (HPC)
[13] = dose: 6.25 mg/kg/injection, schedule: Q01DX009 (ip), vehicle: saline
[14] = dose: 12.5 mg/kg/injection, schedule: Q01DX009 (ip), vehicle: saline
[15] = dose: 25.0 mg/kg/injection, schedule: Q01DX009 (ip), vehicle: saline
[16] = dose: 25.0 mg/kg/injection, schedule: Q04DX003 (ip), vehicle: saline

Measured: T/C

CCOC(=O)c1nc2c(OC)nn(O)cc-2c1[N+](=O)[O-]
inactive: dose: 12.5 mg/kg/injection, schedule: Q04DX002 (ip), vehicle: saline with Tween-80 92 % of control | dose: 25.0 mg/kg/injection, schedule: Q04DX002 (ip), vehicle: saline with Tween-80 99 % of control

CCCC(C)OS(=O)(=O)c1ccc(Br)cc1 (stereo not drawn)
inactive: [1] 91 % of control | [2] 97 % of control | dose: 200.0 mg/kg/injection, schedule: Q01DX009 (ip), vehicle: saline 96 % of control | [3] 100 % of control | dose: 400.0 mg/kg/injection, schedule: Q01DX009 (ip), vehicle: saline 86 % of control | dose: 400.0 mg/kg/injection, schedule: Q04DX002 (ip), vehicle: saline with Tween-80 97 % of control

O=C1c2c(ccc3ccccc23)CCC1CN1CCCCC1 (stereo not drawn)
inactive: dose: 100.0 mg/kg/injection, schedule: Q01DX001 (ip), vehicle: saline 102 % of control | dose: 200.0 mg/kg/injection, schedule: Q01DX001 (ip), vehicle: saline 108 % of control | dose: 400.0 mg/kg/injection, schedule: Q01DX001 (ip), vehicle: saline 112 % of control

CCCN(CCC)S(=O)(=O)CCC
inactive: dose: 50.0 mg/kg/injection, schedule: Q04DX002 (ip), vehicle: saline with Tween-80 97 % of control | [2] 97 % of control | [3] 101 % of control

CC1(C)CN1P(=O)(Oc1ccc([N+](=O)[O-])cc1)N1CC1(C)C (stereo not drawn)
inactive: [4] 110 % of control | [5] 108 % of control

NC(=O)C1CCCC12NC(=O)NC2=O (stereo not drawn)
inactive: [6] 104 % of control | [7] 100 % of control | [8] 94 % of control | [9] 103 % of control | [10] 93 % of control | [11] 97 % of control

Cc1cc2nc(CO)[nH]c2cc1C
inactive: [6] 94 % of control | [7] 95 % of control | [8] 96 % of control | [9] 93 % of control | [10] 98 % of control | [11] 92 % of control

COc1ccccc1NC(=O)NCCN1CCOCC1
inactive: [6] 103 % of control | [8] 95 % of control

O=C(O)CC12CCCCC1CCCC2 (stereo not drawn)
inactive: dose: 100.0 mg/kg/injection, schedule: Q01DX009 (ip), vehicle: acetone 94 % of control | dose: 200.0 mg/kg/injection, schedule: Q01DX009 (ip), vehicle: acetone 100 % of control | dose: 400.0 mg/kg/injection, schedule: Q01DX009 (ip), vehicle: acetone 94 % of control

Cc1ccc(S(=O)(=O)OC(CO)C(O)C(O)C(CO)OS(=O)(=O)c2ccc(C)cc2)cc1 (stereo not drawn) (tested in a mixture with another compound)
inactive: [4] 86 % of control | [5] 101 % of control | [12] 93 % of control

CCCCSc1ncc(C)c(NC)n1
inactive: dose: 25.0 mg/kg/injection, schedule: Q01DX Z (ip), vehicle: methylcellulose (MC) 92 % of control | dose: 50.0 mg/kg/injection, schedule: Q01DX Z (ip), vehicle: methylcellulose (MC) 95 % of control

C=CC[n+]1ccccc1Cc1ccccc1
inactive: [13] 100 % of control | [14] 108 % of control | dose: 12.5 mg/kg/injection, schedule: Q04DX003 (ip), vehicle: saline 104 % of control | [15] 103 % of control | [16] 107 % of control

CCCCCCCCCCCCCCCCCCNC(=O)NCCN(C)c1ccccc1
inactive: dose: 100.0 mg/kg/injection, schedule: Q01DX009 (ip), vehicle: carboxymethylcellulose (CMC) 87 % of control and 91 % of control | [4] 108 % of control | dose: 100.0 mg/kg/injection, schedule: Q04DX002 (ip), vehicle: carboxymethylcellulose (CMC) 95 % of control and 97 % of control | dose: 100.0 mg/kg/injection, schedule: Q04DX003 (ip), vehicle: carboxymethylcellulose (CMC) 95 % of control | dose: 200.0 mg/kg/injection, schedule: Q01DX009 (ip), vehicle: carboxymethylcellulose (CMC) 90 % of control | [5] 112 % of control | dose: 200.0 mg/kg/injection, schedule: Q04DX002 (ip), vehicle: carboxymethylcellulose (CMC) 93 % of control and 95 % of control | dose: 200.0 mg/kg/injection, schedule: Q04DX003 (ip), vehicle: carboxymethylcellulose (CMC) 104 % of control | [12] 102 % of control | dose: 400.0 mg/kg/injection, schedule: Q04DX002 (ip), vehicle: carboxymethylcellulose (CMC) 95 % of control and 90 % of control | dose: 400.0 mg/kg/injection, schedule: Q04DX003 (ip), vehicle: carboxymethylcellulose (CMC) 86 % of control

Cc1cnc(/C=N/NC(N)=S)cn1
inactive: dose: 100.0 mg/kg/injection, schedule: Q04DX002 (ip), vehicle: saline 99 % of control | dose: 200.0 mg/kg/injection, schedule: Q04DX002 (ip), vehicle: saline 96 % of control | dose: 400.0 mg/kg/injection, schedule: Q04DX002 (ip), vehicle: saline 108 % of control

CC1(C)C/C(=C\c2cccc(Cl)c2)C(=O)c2ccccc21
inactive: [7] 108 % of control | [9] 106 % of control | [11] 110 % of control

Nc1nccs1
inactive: dose: 0.75 mg/kg/injection, schedule: Q01DX009 (ip), vehicle: carboxymethylcellulose (CMC) 100 % of control | dose: 1.5 mg/kg/injection, schedule: Q01DX009 (ip), vehicle: carboxymethylcellulose (CMC) 103 % of control | dose: 1.5 mg/kg/injection, schedule: Q04DX002 (ip), vehicle: saline with Tween-80 93 % of control | dose: 3.0 mg/kg/injection, schedule: Q01DX009 (ip), vehicle: carboxymethylcellulose (CMC) 100 % of control | dose: 3.0 mg/kg/injection, schedule: Q04DX002 (ip), vehicle: saline with Tween-80 90 % of control | dose: 3.5 mg/kg/injection, schedule: Q04DX002 (ip), vehicle: saline with Tween-80 91 % of control | dose: 6.0 mg/kg/injection, schedule: Q01DX009 (ip), vehicle: carboxymethylcellulose (CMC) 100 % of control | dose: 12.0 mg/kg/injection, schedule: Q01DX009 (ip), vehicle: carboxymethylcellulose (CMC) 103 % of control | dose: 12.0 mg/kg/injection, schedule: Q04DX002 (ip), vehicle: saline with Tween-80 101 % of control and 91 % of control

CN(C)CC/C=C1\c2ccccc2CN(C)c2ccccc21
inactive: dose: 6.25 mg/kg/injection, schedule: Q01DX009 (ip), vehicle: saline with Tween-80 94 % of control | [13] 108 % of control | dose: 12.5 mg/kg/injection, schedule: Q01DX009 (ip), vehicle: saline with Tween-80 104 % of control | [14] 107 % of control | dose: 25.0 mg/kg/injection, schedule: Q01DX009 (ip), vehicle: saline with Tween-80 88 % of control | [15] 94 % of control | dose: 25.0 mg/kg/injection, schedule: Q04DX003 (ip), vehicle: saline with Tween-80 88 % of control | [16] 97 % of control | dose: 50.0 mg/kg/injection, schedule: Q01DX009 (ip), vehicle: saline 94 % of control | dose: 50.0 mg/kg/injection, schedule: Q04DX003 (ip), vehicle: saline with Tween-80 96 % of control | dose: 50.0 mg/kg/injection, schedule: Q04DX003 (ip), vehicle: saline 97 % of control | [1] 105 % of control | dose: 100.0 mg/kg/injection, schedule: Q04DX003 (ip), vehicle: saline with Tween-80 94 % of control | dose: 100.0 mg/kg/injection, schedule: Q04DX003 (ip), vehicle: saline 101 % of control

Source: PubChem BioAssay AID248 (DTP/NCI, 2004)
